# US9718812B2, “Substituted thiazole or oxazole P2X7 receptor antagonists” (Axxam S.P.A., priority 2014, dated 2017)
# Biological target: P2X7 receptor (Homo sapiens (Human), UniProt Q99572)
# Assay: YO-PRO-1 Uptake Assay (large pore form, Bz-ATP stimulated)
# Assay type: cell-based
# Conditions: HEK-293 cells stably transfected with P2X7 receptor; Bz-ATP EC80 (30 μM); 5 μM YO-PRO-1
# Source text: YO-PRO®-1 is a fluorescent DNA-binding dye with a MW of 374 Da (Molecular Probes®, cat. Y3603). This method is based upon the presumed ability of YO-PRO®-1 to enter through the dilated or “large pore form” of P2X7 receptor and to bind to intracellular DNA whereupon it increases many fold its fluorescence intensity. The dye has an absorption spectrum compatible with excitation at 488 nm by argon laser sources and its emission wavelength is in the range of 515-575 nm. The aim of this assay was to validate the interaction of antagonists with P2X7 receptor using an alternative readout to Ca^2+-sensitive fluorescent dyes.
# HEK-293 cells stably transfected with P2X7 receptor were seeded overnight in growth medium at 20,000 cells/well in 384-well plate. 24 hours later, the medium was removed, the cells were washed with Low Divalent Cation Assay Buffer (0.3 mM Ca2+ and 0 mM Mg2+) and then pre-loaded with 20 μL/w of 5 μM YO-PRO®-1 dye. […] fluorescence measurement immediately started. Then, 10 μL/w of test compounds and reference antagonist A438079 at 3×-concentration were injected with the […] and the kinetic response over a period of five minutes was monitored. A second injection of 10 μL/w of 3× Bz-ATP EC80 (30 μM) was performed with the […] and the signal of the emitted fluorescence was recorded for additional 60 minutes. All the experiment was carried out with a Low Divalent Cation Assay Buffer (0.3 mM Ca^2+ and 0 mM Mg^2+).
# The effect of the test compounds was measured as percent inhibition vs the reference antagonist and IC50 values were calculated accordingly.
# P2X7 receptor, sequence (Q99572 whole entry): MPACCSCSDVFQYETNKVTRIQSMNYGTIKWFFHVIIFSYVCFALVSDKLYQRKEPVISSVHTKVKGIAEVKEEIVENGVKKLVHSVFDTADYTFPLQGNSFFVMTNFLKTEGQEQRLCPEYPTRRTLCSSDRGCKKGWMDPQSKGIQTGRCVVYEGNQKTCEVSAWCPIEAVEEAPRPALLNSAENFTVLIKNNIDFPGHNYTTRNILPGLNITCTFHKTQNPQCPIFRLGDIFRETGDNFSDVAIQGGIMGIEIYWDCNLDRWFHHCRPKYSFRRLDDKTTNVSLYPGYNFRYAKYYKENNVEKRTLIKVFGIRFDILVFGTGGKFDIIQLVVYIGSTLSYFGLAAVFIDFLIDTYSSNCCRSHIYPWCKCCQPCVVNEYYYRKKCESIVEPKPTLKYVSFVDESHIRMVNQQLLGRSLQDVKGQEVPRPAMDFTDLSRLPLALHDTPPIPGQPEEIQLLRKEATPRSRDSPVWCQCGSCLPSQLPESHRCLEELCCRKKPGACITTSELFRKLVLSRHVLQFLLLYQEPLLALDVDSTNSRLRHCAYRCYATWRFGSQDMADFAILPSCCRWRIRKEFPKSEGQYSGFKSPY
row,IC50 [nM],SMILES
1,2070,"Cc1ncoc1C(CNC(=O)c1c(F)cccc1Cl)N1CCC(F)(F)CC1 (stereo not shown) [Compound 52, 2-chloro-N-[2-(4,4-difluoropiperidin-1-yl)-2-(4-methyl-1,3-oxazol-5-yl)ethyl]-6-fluorobenzamide]"
2,225,"O=C(NCC(c1cnco1)N1CCC(F)(F)CC1)c1c(F)cccc1Cl (stereo not shown) [Compound 45, 2-chloro-N-[2-(4,4-difluoropiperidin-1-yl)-2-(1,3-oxazol-5-yl)ethyl]-6-fluorobenzamide]"

# Biological target: P2X7 receptor (hP2X7) (Homo sapiens (Human), UniProt Q99572)
# Sequence (Q99572 whole entry): as above
# Assay: Screen Quest Fluo-8 No Wash Calcium Assay (Bz-ATP-induced Ca2+ influx, FLIPR TETRA)
# Assay type: cell-based
# Conditions: HEK-293 cells stably transfected with P2X7 receptor, Fluo-8 calcium, Low Divalent Cation Assay Buffer
# Method: Extracellular binding of Bz-ATP to P2X7 receptor opens the channel and allows Ca2+ influx into the cells. This Ca2+ entry was measured in HEK-293 cells stably transfected with P2X7 receptor using Screen Quest™ Fluo-8 No Wash Calcium Assay Kit (AAt Bioquest®, cat. 36316). Once inside the cell, the lipophilic blocking groups of Fluo-8 are cleaved by non-specific cell esterases, resulting in a negatively-charged fluorescent dye that stays inside cells. Its fluorescence increases upon binding to calcium. When HEK-293/P2X7 cells are stimulated with Bz-ATP, Ca2+ enters the cells and the fluorescence of Fluo-8 NW increases. The dye has an absorption spectrum compatible with excitation at 488 nm by argon laser sources and its emission wavelength is in the range of 515-575 nm.
# HEK-293 cells stably transfected with P2X7 receptor were seeded overnight in growth medium at 10,000 to 20,000 cells/well in 384-well plate. 24 hours later, the medium was removed and the cells were pre-loaded at RT for 1 hour with 20 μL/w of Fluo-8 NW. Then 10 μL/w of test compounds and reference antagonist A438079 at 3×-concentration were injected with the […] and the kinetic response over a period of five minutes was monitored.
row,IC50 [nM],SMILES
1,319,O=C(NCC(c1scnc1C1CC1)N1CCC(F)(F)CC1)c1cc(-c2ncc(F)cn2)ccc1Cl (stereo not shown) [Compound 119]
2,292,"Cc1ncc(C(CNC(=O)c2cc(-c3ncc(F)cn3)ccc2F)N2CCC(F)(F)CC2)s1 (stereo not shown) [Compound 80, N-[2-(4,4-difluoropiperidin-1-yl)-2-(2-methyl-1,3-thiazol-5-yl)ethyl]-2-fluoro-5-(5-fluoropyrimidin-2-yl)benzamide]"
3,186,"Cc1ncsc1C(CNC(=O)c1cc(-c2ncc(F)cn2)ccc1Cl)N1CCC(F)(F)CC1C (stereo not shown) [Compound 103, 2-chloro-N-[2-(4,4-difluoro-2-methylpiperidin-1-yl)-2-(4-methyl-1,3-thiazol-5-yl)ethyl]-5-(5-fluoropyrimidin-2-yl)benzamide]"
4,142,Cc1ncsc1C(CNC(=O)c1cc(-c2ncc(F)cn2)ccc1F)N1CCOC(c2cnn(C)c2)C1 (stereo not shown) [Compound 98]
5,238,"Cc1ncsc1C(CNC(=O)c1cc(-c2ncc(F)cn2)ccc1Cl)N1CCC(Oc2ccccc2)CC1 (stereo not shown) [Compound 73, 2-chloro-5-(5-fluoropyrimidin-2-yl)-N-[2-(4-methyl-1,3-thiazol-5-yl)-2-(4-phenoxypiperidin-1-yl)ethyl]benzamide]"
6,429,"O=C(NCC(c1cnc(C2CCC(F)(F)CC2)s1)N1CCC(F)(F)CC1)c1c(F)cccc1Cl (stereo not shown) [Compound 117, 2-chloro-N-{2-[2-(4,4-difluorocyclohexyl)-1,3-thiazol-5-yl]-2-(4,4-difluoropiperidin-1-yl)ethyl}-6-fluorobenzamide]"
7,321,"Cc1ncsc1C(CNC(=O)c1cc(-c2ncc(F)cn2)ccc1F)N1CCOC2(CCC2)C1 (stereo not shown) [Compound 94, 2-fluoro-5-(5-fluoropyrimidin-2-yl)-N-[2-(4-methyl-1,3-thiazol-5-yl)-2-{5-oxa-8-azaspiro[3.5]nonan-8-yl}ethyl]benzamide]"
8,412,"Cc1ncsc1C(CNC(=O)c1c(F)cccc1Cl)N1CCOC(c2ccccc2C(F)(F)F)C1 (stereo not shown) [Compound 90, 2-chloro-6-fluoro-N-[2-(4-methyl-1,3-thiazol-5-yl)-2-{2-[2-(trifluoromethyl)phenyl]morpholin-4-yl}ethyl]benzamide]"
9,171,"Cc1ncsc1C(CNC(=O)c1c(F)cccc1Cl)N1CCOC(c2cnn(C)c2)C1 (stereo not shown) [Compound 92, 2-chloro-6-fluoro-N-[2-(4-methyl-1,3-thiazol-5-yl)-2-[2-(1-methyl-1H-pyrazol-4-yl)morpholin-4-yl]ethyl]benzamide]"
10,495,"O=C(NCC(c1cnc(C2CC2)s1)N1CCC(F)(F)CC1)c1cc(-c2ncc(F)cn2)ccc1F (stereo not shown) [Compound 86, N-[2-(2-cyclopropyl-1,3-thiazol-5-yl)-2-(4,4-difluoropiperidin-1-yl)ethyl]-2-fluoro-5-(5-fluoropyrimidin-2-yl)benzamide]"
11,355,"COc1ccc(-c2ncc(F)cn2)cc1C(=O)NCC(c1scnc1C)N1CCC(F)(F)CC1 (stereo not shown) [Compound 71, N-[2-(4,4-difluoropiperidin-1-yl)-2-(4-methyl-1,3-thiazol-5-yl)ethyl]-5-(5-fluoropyrimidin-2-yl)-2-methoxybenzamide]"
12,1060,"CC(C)(C)c1ncc(C(CNC(=O)c2cc(-c3ncc(F)cn3)ccc2Cl)N2CCC(F)(F)CC2)s1 (stereo not shown) [Compound 122, N-[2-(2-tert-butyl-1,3-thiazol-5-yl)-2-(4,4-difluoropiperidin-1-yl)ethyl]-2-chloro-5-(5-fluoropyrimidin-2-yl)benzamide]"
13,1870,"Cc1ncsc1C(CNC(=O)c1c(F)cccc1Cl)N1CCC(F)(F)CC1C (stereo not shown) [Compound 104, 2-chloro-N-[2-(4,4-difluoro-2-methylpiperidin-1-yl)-2-(4-methyl-1,3-thiazol-5-yl)ethyl]-6-fluorobenzamide]"
14,989,"Cc1ncsc1C(CNC(=O)c1c(F)cccc1Cl)N1CCOC2(CCC2)C1 (stereo not shown) [Compound 96, 2-chloro-6-fluoro-N-[2-(4-methyl-1,3-thiazol-5-yl)-2-{5-oxa-8-azaspiro[3.5]nonan-8-yl}ethyl]benzamide]"
15,243,"CC(C)(C)c1ncc(C(CNC(=O)c2c(F)cccc2Cl)N2CCC(F)(F)CC2)s1 (stereo not shown) [Compound 118, N-[2-(2-tert-butyl-1,3-thiazol-5-yl)-2-(4,4-difluoropiperidin-1-yl)ethyl]-2-chloro-6-fluoro-benzamide]"
16,336,"O=C(NCC(c1cnc(C2CCC(F)(F)CC2)s1)N1CCOCC1)c1cc(-c2ncc(F)cn2)ccc1Cl (stereo not shown) [Compound 125, 2-chloro-N-{2-[2-(4,4-difluorocyclohexyl)-1,3-thiazol-5-yl]-2-(morpholin-4-yl)ethyl}-5-(5-fluoropyrimidin-2-yl)benzamide]"
17,253,"Cc1ncsc1C(CNC(=O)c1c(F)cccc1Cl)N1CCCC(F)(F)C1 (stereo not shown) [Compound 64, 2-chloro-N-[2-(3,3-difluoropiperidin-1-yl)-2-(4-methyl-1,3-thiazol-5-yl)ethyl]-6-fluorobenzamide]"
18,39,"Cc1ncsc1C(CNC(=O)c1cc(-c2ncc(F)cn2)ccc1Cl)N1CC(F)(F)C1 (stereo not shown) [Compound 65, 2-chloro-N-[2-(3,3-difluoroazetidin-1-yl)-2-(4-methyl-1,3-thiazol-5-yl)ethyl]-5-(5-fluoropyrimidin-2-yl)benzamide]"
19,367,Cc1ncsc1C(CNC(=O)c1ccc(N2CCCS2(=O)=O)cc1Cl)N1CCC(F)(F)CC1 (stereo not shown) [Compound 114]
20,206,"Cc1cccc(-c2ccc(Cl)c(C(=O)NCC(c3cnc(C)s3)N3CCC(F)(F)CC3)c2)n1 (stereo not shown) [Compound 79, 2-chloro-N-[2-(4,4-difluoropiperidin-1-yl)-2-(2-methyl-1,3-thiazol-5-yl)ethyl]-5-(6-methylpyridin-2-yl)benzamide]"
21,743,"Cc1ncc(C(CNC(=O)c2cc(-c3ncc(F)cn3)ccc2Cl)N2CCC(F)(F)CC2C)s1 (stereo not shown) [Compound 113, 2-chloro-N-[2-(4,4-difluoro-2-methylpiperidin-1-yl)-2-(2-methyl-1,3-thiazol-5-yl)ethyl]-5-(5-fluoropyrimidin-2-yl)]"
22,6910,"Cc1ncsc1C(CNC(=O)c1cc2c(cc1F)NC(=O)CC2)N1CCC(F)(F)CC1 (stereo not shown) [Compound 120, N-[2-(4,4-difluoropiperidin-1-yl)-2-(4-methyl-1,3-thiazol-5-yl)ethyl]-7-fluoro-2-oxo-1,2,3,4-tetrahydroquinoline-6-]"
23,139,Cc1ncsc1C(CNC(=O)c1cc(-c2ncc(F)cn2)ccc1Cl)N1CCOC(c2cnn(C)c2)C1 (stereo not shown) [Compound 97]
24,133,"Cc1ncc(C(CNC(=O)c2cc(-c3cnccn3)ccc2Cl)N2CCC(F)(F)CC2)s1 (stereo not shown) [Compound 78, 2-chloro-N-[2-(4,4-difluoropiperidin-1-yl)-2-(2-methyl-1,3-thiazol-5-yl)ethyl]-5-(pyrazin-2-yl)benzamide]"
25,531,"O=C(NCC(c1scnc1C1CC1)N1CCC(F)(F)CC1)c1cccc2ncccc12 (stereo not shown) [Compound 121, N-[2-(4-cyclopropyl-1,3-thiazol-5-yl)-2-(4,4-difluoropiperidin-1-yl)ethyl]quinoline-5-carboxamide]"
26,1430,O=C(NCC(c1cnc(C2CCC(F)(F)CC2)s1)N1CCC(F)(F)CC1)c1cc(-c2ncc(F)cn2)ccc1Cl (stereo not shown) [Compound 126]
27,737,O=C(NCC(c1cnc(C(F)(F)F)s1)N1CCC(F)(F)CC1)c1cc(-c2ncc(F)cn2)ccc1Cl (stereo not shown) [Compound 82]
28,3950,"CC(C)(C)c1ncc(C(CNC(=O)c2cccc3ncccc23)N2CCC(F)(F)CC2)s1 (stereo not shown) [Compound 124, N-[2-(2-tert-butyl-1,3-thiazol-5-yl)-2-(4,4-difluoropiperidin-1-yl)ethyl]quinoline-5-carboxamide]"
29,279,"O=C(NCC(c1scnc1C1CC1)N1CCC(F)(F)CC1)c1c(F)cccc1Cl (stereo not shown) [Compound 123, 2-chloro-N-[2-(4-cyclopropyl-1,3-thiazol-5-yl)-2-(4,4-difluoropiperidin-1-yl)ethyl]-6-fluorobenzamide]"
